What was measured:
B16F10 cells [1] = experiment: Annexin V/PI double labeling, flow cytometry, B16F10; type: cell-based, murine; conditions: B16F10, 6 μM
Procedure: (§1) Apoptosis in GC2-treated melanoma cells was detected using Annexin V and PI double labeling assay, see van Engeland, M., et al., Cytometry, 31, 1-9, 1998. Annexin V/PI labeling was applied to both fluorescence microscopy and flow cytometry following the protocol supplied by the manufacturer. Briefly, for fluorescence microscopy analysis adherent cells (approximately 16×10^4) treated with GC2 were washed with annexin V binding buffer, and incubated with Alexa Fluor® 488 Annexin V (5 μl in 1 ml annexin V binding buffer) for 15 min at RT, in the dark, to which 0.2 μg PI was added. Live cells were washed with annexin V binding buffer and examined by microscopy. For flow cytometric analysis, cells treated with GC2 were harvested by trypsinisation and a number of viable cells was counted. 16×10^4 cells were re-suspended in 0.2 ml annexin V binding buffer and treated in the same were adherent cells. Finally, labeled cells were analyzed with a FACScan™ using CellQuest™ software (Becton Dickinson, San Jose, Calif.).
(§2) Cells cultured under normal conditions for 24 h were further treated for 5 h, 8 h or 24 h with 6 μM of GC2, labeled with annexin V and PI and quantitatively analyzed by flow cytometry for viable, apoptotic and necrotic populations (FIG. 7).

B16F10 cells [2] = experiment: Cell cycle distribution analysis (PI, flow cytometry), B16F10; type: cell-based, murine; conditions: B16F10, 6 μM, 24 h
Procedure: (§3) Cell cycle analysis in melanoma cells treated with GC2 was performed by determining DNA content using propidium iodide (PI) staining. PI intercalates into the major groove of double stranded DNA and produces a highly fluorescent adduct that can be excited at 488 nm and with a broad emission centered at 600 nm, see e.g. Krishan A. J. Cell. Biol. 66, 188, 1975. Melanoma cells (20×10^4) were cultured in 25 cm^2 tissue culture flasks for 24 h, followed by a further incubation for indicated time periods with 6 μM GC2. After treatment, adherent cells were trypsinized and a number of viable cells was determined by trypan blue exclusion. […] cells were re-suspended in 200 μl FACS buffer (2% FCS in PBS) and fixed with 600 μl absolute methanol, dropwise added under gentle vortexing, for at least 2 h at −20° C. Fixed cells were washed with FACS buffer, centrifuged for 5 min at 1500 rpm, at 4° C., and incubated for 30 min, in the dark, at room temperature (RT) with 200 μl PI staining solution in 3.8 mM sodium citrate (10 μl RNaze 10 μg/ml previously boiled for 5 min and 1 μl PI 10 mg/ml). The staining solution was removed by centrifugation and the cell pellet was re-suspended in 200 μl FACS buffer. Samples were analyzed for DNA content using a FACScan™ using CellQuest™ software (Becton Dickinson, San Jose, Calif.). […]

MNT-1 cells = experiment: Annexin V/PI double labeling, flow cytometry, MNT-1; type: cell-based; conditions: MNT-1, 6 μM
Procedure: as §1, §2

MelJuSo melanoma cells = experiment: MTS cell viability assay, MelJuSo; type: cell-based; conditions: Homo sapiens, MEL-JUSO, 24 h, read-out: IC50 (concentration reducing number of viable cells by 50%)
Procedure: (§4) Cells were cultured at indicated densities for 24 h, medium was removed and the incubation was continued in a fresh culture medium containing various GC2 or DTIC concentrations. In control experiments, cells were grown in a culture medium containing GC2 buffer.
(§5) The standard […] (MTS)-3-(4,5-dimethylthiazol-2-yl)-5-(3-carboxymethoxyphenyl)-2-(4-sulphophenyl)-2H-tetrazolium inner salt solution assay was performed in order to examine the cytotoxic/cytostatic effect of GC2 on melanoma cells. Briefly, 7.5×10^3 cells were seeded in 96-well microtiter plates (Nunc). After an overnight incubation, serial dilutions of GC2 or DTIC were added in triplicate to a final volume of 100 μl. The blank was represented by a culture medium without cells containing the highest GC2 or DTIC concentration. After 24 h of incubation 20 μl MTS was added to each well and all samples were incubated for 3 h at 37° C. An absorbance of each well was read at 450 nm in a microplate reader. A percentage of cell viability was calculated considering that 100% cell viability was represented by an absorbance of untreated samples […]. Alternatively, the number of viable cells was determined by Trypan blue exclusion test. Melanoma cells treated with GC2 were trypsinized and cells negative for blue staining (viable cells) were counted using a hemocytometer. […]

SKMel28 melanoma cells = experiment: MTS cell viability assay, SKMel28; type: cell-based; conditions: Homo sapiens, SK-MEL-28, SKMel28, 24 h, read-out: IC50 (concentration reducing number of viable cells by 50%)
Procedure: as §4, §5

MelJuSo cells = experiment: Cell cycle distribution analysis (PI, flow cytometry), MelJuSo; type: cell-based, human; conditions: 6 μM, 24 h
Procedure: as §3

With `CC(=O)O.CCCCCCCCCN1[C@@H](CO)[C@@H](O)[C@H](O)[C@@H]1CCCCCCCC` [GC2, (2S,3R,4R,5S)-3,4-dihydroxy-N-nonyl-5-octyl-2 hydroxymethylpyrrolidinium acetate] the “number of viable, apoptotic or necrotic cells” value (B16F10 cells [1]; 5 h) was “did not change significantly”, the “increase of apoptotic cells versus control (factor)” value (B16F10 cells [1]; 8 h) was 1.7 and the “increase of necrotic fraction versus control” value (B16F10 cells [1]; 8 h) was “approximately doubled”. For the same molecule, the apoptotic cells (B16F10 cells [1]; 8 h, control 1.95%) was 3.44%, the necrotic fraction (B16F10 cells [1]; 8 h, control 4.28%) was 8.78% and the “increase of apoptotic cells versus control (factor)” value (B16F10 cells [1]; 24 h) was 2.9. For the same molecule, the “increase of necrotic fraction versus control (factor)” value (B16F10 cells [1]; 24 h) was 4.4, the apoptotic cells (B16F10 cells [1]; 24 h, control 2.28%) was 6.72% and the necrotic fraction (B16F10 cells [1]; 24 h, control 4.95%) was 22.16%. The “number of cells in G2 phase” value (B16F10 cells [2]; untreated 21.68%) was 16.96%, the “proportion of surviving cells in G0/G1 phase” value (B16F10 cells [2]; untreated 45.42) was 53.74% and the “increase of apoptotic population versus control” value (MNT-1 cells; 5 h) was “doubled”. The “increase of necrotic fraction versus control (factor)” value (MNT-1 cells; 5 h) was 2.3, the apoptotic population (MNT-1 cells; 5 h, control 3.29%) was 6.94% and the necrotic fraction (MNT-1 cells; 5 h, control 4.24%) was 10.07%. The “increase of apoptotic population versus control (times)” value (MNT-1 cells; 8 h) was 3.5, the “increase of necrotic fraction versus control (factor)” value (MNT-1 cells; 8 h) was 2.9 and the apoptotic population (MNT-1 cells; 8 h, control 4.32%) was 15.49%. For the same molecule, the necrotic fraction (MNT-1 cells; 8 h, control 5.84%) was 17.25%, the “increase of apoptotic population versus control (times)” value (MNT-1 cells; 24 h) was 7.6 and the “increase of necrotic fraction versus control (factor)” value (MNT-1 cells; 24 h) was 9.5. The necrotic fraction (MNT-1 cells; 24 h, control 2.07%) was 19.18%, the apoptotic population (MNT-1 cells; 24 h, control 3.25%) was 24.86% and the IC50 (MelJuSo melanoma cells) was 7 to 8 µM. For the same molecule, the IC50 (SKMel28 melanoma cells) was 7 to 8 µM, the “number of cells in G2 phase” value (MelJuSo cells; untreated 17.7%) was 8.48% and the “proportion of surviving cells in G0/G1 phase” value (MelJuSo cells; untreated 51.20%) was 60.00%.
